The record followed here is patent US7419780B2, “Methods and assays for screening protein targets” (The Trustees of Columbia University in the City of New York, priority 2000, dated 2008).

Common to all, as to type: cell-based, S. cerevisiae
Common to all, as to details: 1 uM small molecule, difference to activity without small molecule, average of two trials

In test [1] the target is T1, LexA (GSG)2rGR2 / B42 (GSG)2eDHFR (UniProt P06536+P0ABQ4, C656G/F620S).
T1 construct: rat Glucocorticoid Receptor (aa 524-795) with point mutations; expressed in transfected cells; host or cells: S. cerevisiae FY250
T1 sequence (P06536 524-795 F620S/C656G limits assumed): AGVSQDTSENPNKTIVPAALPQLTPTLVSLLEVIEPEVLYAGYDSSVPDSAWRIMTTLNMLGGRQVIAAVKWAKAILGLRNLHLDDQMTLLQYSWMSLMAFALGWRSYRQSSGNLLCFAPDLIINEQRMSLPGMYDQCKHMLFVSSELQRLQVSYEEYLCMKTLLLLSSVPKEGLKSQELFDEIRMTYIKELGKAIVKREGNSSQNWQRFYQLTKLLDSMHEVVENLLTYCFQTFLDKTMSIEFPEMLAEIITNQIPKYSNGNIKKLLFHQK
T1 sequence (P0ABQ4 1-159): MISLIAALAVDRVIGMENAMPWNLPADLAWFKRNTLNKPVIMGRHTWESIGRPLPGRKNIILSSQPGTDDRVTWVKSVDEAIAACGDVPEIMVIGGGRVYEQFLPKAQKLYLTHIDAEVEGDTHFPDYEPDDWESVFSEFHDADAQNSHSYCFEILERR
In words: β-galactosidase activity assay, strain V510Y. The source says:
(§1) Table III explains the components of each strain. Each strain was constructed from the parent yeast strain FY250 and also contains the pMW106 plasmid, which has the LacZ reporter gene that is turned on only in when the LexA DNA binding domain and the B42 activation are brought in tot he vicinity of each other. We use several different strains because we use DHFR from two different species, mDHFR is from murine, while eDHFR is from E. coli. We are asl oable to switch the small moleculebinding domains. For example, the strain containing LexA-eDHFR with B42-rGH2 is a different strain and behaves differently from the strain containing LexA-rGR2 with B42-eDHFR. We also put in short 6 amino acid linkers between the two domains of our protein chimeras and thus these are different strain as well.
(§2) The results in Table IV are averages of two separate trials. Each strain was examined with small molecules and without small molecules. The absolute activity is given as the β-galactisidase activity […]. The average β-galactosidse activity for a strain without small molecule (i.e. the negative control) was about 100 β-galactosidase units.

In test [2] the target is T2, LexA (GSG)2mDHFR / B42 (GSG)rGR2 (UniProt P00375+P06536, C656G/F620S).
T2 construct: rat Glucocorticoid Receptor (aa 524-795) with point mutations; expressed in transfected cells; host or cells: S. cerevisiae FY250
T2 sequence (P00375 1-187): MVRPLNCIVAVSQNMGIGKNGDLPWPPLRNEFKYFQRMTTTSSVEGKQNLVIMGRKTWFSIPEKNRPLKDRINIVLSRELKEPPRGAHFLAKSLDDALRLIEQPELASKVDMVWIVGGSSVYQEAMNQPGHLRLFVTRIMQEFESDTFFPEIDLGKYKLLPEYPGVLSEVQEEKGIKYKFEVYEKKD
T2 sequence (P06536 524-795 F620S/C656G limits assumed): T1 sequence (P06536 524-795 F620S/C656G limits assumed)
In words: β-galactosidase activity assay, strain V504Y.
Source text: as §1, §2

The target in test [3] is T3, LexA mDHFR / B42 gly6rGR2 (UniProt P00375+P06536, C656G/F620S).
T3 construct: rat Glucocorticoid Receptor (aa 524-795) with point mutations; expressed in transfected cells; host or cells: S. cerevisiae FY250
T3 sequence (P00375 1-187): T2 sequence (P00375 1-187)
T3 sequence (P06536 524-795 F620S/C656G limits assumed): T1 sequence (P06536 524-795 F620S/C656G limits assumed)
In words: β-galactosidase activity assay, strain V496Y.
Source text: as §1, §2

Test [4] addresses T4, LexA eDHFR / B42 gly6rGR2 (UniProt P06536+P0ABQ4, C656G/F620S).
T4 construct: rat Glucocorticoid Receptor (aa 524-795) with point mutations; expressed in transfected cells; host or cells: S. cerevisiae FY250
T4 sequence (P0ABQ4 1-159): T1 sequence (P0ABQ4 1-159)
T4 sequence (P06536 524-795 F620S/C656G limits assumed): T1 sequence (P06536 524-795 F620S/C656G limits assumed)
As to the kind of experiment: β-galactosidase activity assay, strain V375Y.
Source text: as §1, §2

Test [5] addresses T5, LexA (GSG)2rGR2 / B42 eDHFR (UniProt P06536+P0ABQ4, C656G/F620S).
T5 construct: expressed in transfected cells; host or cells: S. cerevisiae FY250 with pMW106 lacZ reporter
T5 sequence (P06536 524-795 F620S/C656G limits assumed): T1 sequence (P06536 524-795 F620S/C656G limits assumed)
T5 sequence (P0ABQ4 1-159): T1 sequence (P0ABQ4 1-159)
As to the kind of experiment: β-galactosidase activity assay, strain V506Y.
Source text: as §1, §2

The next test addresses T6, LexA rGR2 / B42 mDHFR (UniProt P00375+P06536, C656G/F620S).
T6 construct: rat Glucocorticoid Receptor (aa 524-795) with point mutations; expressed in transfected cells; host or cells: S. cerevisiae FY250
T6 sequence (P06536 524-795 F620S/C656G limits assumed): T1 sequence (P06536 524-795 F620S/C656G limits assumed)
T6 sequence (P00375 1-187): T2 sequence (P00375 1-187)
As to the kind of experiment: β-galactosidase activity assay, strain V507Y.
Source text: as §1, §2

The target of test [6] is T7, LexA rGR2 / B42 (GSG)2eDHFR (UniProt P06536+P0ABQ4, C656G/F620S).
T7 construct: expressed in transfected cells; host or cells: S. cerevisiae FY250 with pMW106 lacZ reporter
T7 sequence (P06536 524-795 F620S/C656G limits assumed): T1 sequence (P06536 524-795 F620S/C656G limits assumed)
T7 sequence (P0ABQ4 1-159): T1 sequence (P0ABQ4 1-159)
As to the kind of experiment: β-galactosidase activity assay, strain V509Y.
Source text: as §1, §2

Test [7] deals with T8, LexA (GSG)2eDHFR / B42 gly6rGR2 (UniProt P06536+P0ABQ4, C656G/F620S).
T8 construct: rat Glucocorticoid Receptor (aa 524-795) with point mutations; expressed in transfected cells; host or cells: S. cerevisiae FY250
T8 sequence (P0ABQ4 1-159): T1 sequence (P0ABQ4 1-159)
T8 sequence (P06536 524-795 F620S/C656G limits assumed): T1 sequence (P06536 524-795 F620S/C656G limits assumed)
In words: β-galactosidase activity assay, strain V499Y.
Source text: as §1, §2

Another test concerns the target T9, LexA rGR2 / B42 eDHFR (UniProt P06536+P0ABQ4, C656G/F620S).
T9 construct: rat Glucocorticoid Receptor (aa 524-795) with point mutations; expressed in transfected cells; host or cells: S. cerevisiae FY250
T9 sequence (P06536 524-795 F620S/C656G limits assumed): T1 sequence (P06536 524-795 F620S/C656G limits assumed)
T9 sequence (P0ABQ4 1-159): T1 sequence (P0ABQ4 1-159)
In words: β-galactosidase activity assay, strain V505Y.
Source text: as §1, §2

The target in a further test is T10, LexA mDHFR / B42 rGR2 (UniProt P00375+P06536, C656G/F620S).
T10 construct: rat Glucocorticoid Receptor (aa 524-795) with point mutations; expressed in transfected cells; host or cells: S. cerevisiae FY250
T10 sequence (P00375 1-187): T2 sequence (P00375 1-187)
T10 sequence (P06536 524-795 F620S/C656G limits assumed): T1 sequence (P06536 524-795 F620S/C656G limits assumed)
In words: β-galactosidase activity assay, strain V495Y.
Source text: as §1, §2

Consider `C[C@@H]1C[C@H]2C3CCC4=CC(=O)C=C[C@]4(C)[C@@]3(F)[C@@H](O)C[C@]2(C)[C@@]1(O)C(=O)NCCSCCCCCCCCSCC[C@H](NC(=O)c1ccc(N(C)Cc2cnc3nc(N)nc(N)c3n2)cc1)C(=O)O` (stereo partly shown) [D8M], for which the B-gal activity is recorded as 3163 β-galactosidase units in test [1]; 30 β-galactosidase units in test [2]; −27 β-galactosidase units in test [3]; 5210 β-galactosidase units in [4]; 3867 β-galactosidase units in test [5]; −6 β-galactosidase units at LexA rGR2 / B42 mDHFR. Moreover, the B-gal activity is recorded as 2734 β-galactosidase units in test [6], 7012 β-galactosidase units in test [7], 2532 β-galactosidase units on LexA rGR2 / B42 eDHFR and 38 β-galactosidase units on LexA mDHFR / B42 rGR2.
